The results in this text go back to ChEMBL document CHEMBL6114939, “Identification of Dual Inhibitors Targeting Main Protease (Mpro) and Cathepsin L as Potential Anti-SARS-CoV-2 Agents” (ACS Med Chem Lett, 2024).

Structures are written as SMILES.

Broadly, the EC50 is the midpoint of the concentration-response curve. Low readings indicate an effect from little substance, high ones a need for much substance.

The experiment can be described thus: Antiviral activity against SARS-CoV-2 infected in human Huh-7 cells overexpressing human ACE2 pre-infected with cells for 1 hr followed by compound addition and measured 23 hrs post infection by virus plaque assay. It counts as functional, cell-based.
Turning to `CC(=O)/C=C/[C@H](C[C@@H]1CCNC1=O)NC(=O)[C@H](CC1CC1)NC(=O)c1ccccc1F`, a half-maximal effect (EC50) was put at 10.3 µM. In other words, the double-digit micromolar range. In turn, `CC(=O)/C=C/[C@H](C[C@@H]1CCNC1=O)NC(=O)[C@H](CC(C)C)NC(=O)c1ccc(F)cc1` came in with an EC50 of 7.63 µM. As to `CC(=O)/C=C/[C@H](C[C@@H]1CCNC1=O)NC(=O)[C@H](CC(C)(C)C)NC(=O)c1ccc(F)cc1`, the 50% effective concentration (EC50) is 3.5 µM.
